Data published in patent US20230219986A1, “NOVEL AMINOPYRIMIDINE EGFR INHIBITOR” (QILU PHARMACEUTICAL CO., LTD., priority 2020, published 2023).
Like-named read-outs stand apart in the source and are kept apart here.

Key:
wild-type EGFR = target: T1, wild-type EGFR (Homo sapiens, UniProt P00533); experiment: Enzymology experiment in vitro (HTRF/FRET kinase activity), wild-type EGFR; format: biochemical; conditions: HTRF KinEASE-TK
T1 construct: purchased Signalchem
Method in brief: (§1)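 Kinase reaction run 40 min at room temperature with peptide and ATP after a 10 min compound–enzyme preincubation. Phosphorylation read as HTRF signal after 1 h with Eu³⁺ antibody, XL665-streptavidin and EDTA (Cisbio KinEASE-TK).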

[1] = target: T2, L858R/T790M/C797S triple mutant EGFR (Homo sapiens, UniProt P00533, C797S/L858R/T790M); experiment: Enzymology experiment in vitro (HTRF/FRET kinase activity), L858R/T790M/C797S triple mutant EGFR; format: biochemical; conditions: HTRF KinEASE-TK
T2 construct: purchased Signalchem
Method in brief: as §1

[2] = tested on: EGFR wild-type cell line A431; experiment: Cell proliferation inhibition experiment (CellTiter-Glo), A431; format: cell-based; conditions: Homo sapiens, A431 cells, Cell Titer-Glo, read-out: A431 EGFR WT IC50
Method in brief: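 Luminescent CellTiter-Glo readout, 30 min at room temperature, after 72 h compound exposure at 37° C., 5% CO2 with 0.1% DMSO final. EGFR wild-type A431 cells were seeded at 800 per well and grown 24 h before dosing. IC50 derived from the dose-response.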

[3] = target: Ba/F3 De119/T790M/C797S EGFR triple mutant cell line (Homo sapiens, UniProt P00533, T790M/C797S, cells depend on it, form not given); experiment: Cell proliferation inhibition experiment (CellTiter-Glo), Ba/F3 De119/T790M/C797S; format: cell-based; conditions: Ba/F3 Del19/T790M/C797S EGFR triple mutant cells, 72 hours, Cell Titer-Glo; read-out: Ba/F3 (Del19/T790M/C797S) IC50
[4] = target: Ba/F3 L858R/T790M/C797S EGFR triple mutant cell line (Homo sapiens, UniProt P00533, T790M/C797S/L858R, cells depend on it); experiment: Cell proliferation inhibition experiment (CellTiter-Glo), Ba/F3 L858R/T790M/C797S; format: cell-based; conditions: 72 hours, Cell Titer-Glo, read-out: Ba/F3 (L858R/T790M/C797S) IC50
[5] = read-out: EGFR (L858R/T790M/C797S) IC50

T1 sequence (P00533 25-1210): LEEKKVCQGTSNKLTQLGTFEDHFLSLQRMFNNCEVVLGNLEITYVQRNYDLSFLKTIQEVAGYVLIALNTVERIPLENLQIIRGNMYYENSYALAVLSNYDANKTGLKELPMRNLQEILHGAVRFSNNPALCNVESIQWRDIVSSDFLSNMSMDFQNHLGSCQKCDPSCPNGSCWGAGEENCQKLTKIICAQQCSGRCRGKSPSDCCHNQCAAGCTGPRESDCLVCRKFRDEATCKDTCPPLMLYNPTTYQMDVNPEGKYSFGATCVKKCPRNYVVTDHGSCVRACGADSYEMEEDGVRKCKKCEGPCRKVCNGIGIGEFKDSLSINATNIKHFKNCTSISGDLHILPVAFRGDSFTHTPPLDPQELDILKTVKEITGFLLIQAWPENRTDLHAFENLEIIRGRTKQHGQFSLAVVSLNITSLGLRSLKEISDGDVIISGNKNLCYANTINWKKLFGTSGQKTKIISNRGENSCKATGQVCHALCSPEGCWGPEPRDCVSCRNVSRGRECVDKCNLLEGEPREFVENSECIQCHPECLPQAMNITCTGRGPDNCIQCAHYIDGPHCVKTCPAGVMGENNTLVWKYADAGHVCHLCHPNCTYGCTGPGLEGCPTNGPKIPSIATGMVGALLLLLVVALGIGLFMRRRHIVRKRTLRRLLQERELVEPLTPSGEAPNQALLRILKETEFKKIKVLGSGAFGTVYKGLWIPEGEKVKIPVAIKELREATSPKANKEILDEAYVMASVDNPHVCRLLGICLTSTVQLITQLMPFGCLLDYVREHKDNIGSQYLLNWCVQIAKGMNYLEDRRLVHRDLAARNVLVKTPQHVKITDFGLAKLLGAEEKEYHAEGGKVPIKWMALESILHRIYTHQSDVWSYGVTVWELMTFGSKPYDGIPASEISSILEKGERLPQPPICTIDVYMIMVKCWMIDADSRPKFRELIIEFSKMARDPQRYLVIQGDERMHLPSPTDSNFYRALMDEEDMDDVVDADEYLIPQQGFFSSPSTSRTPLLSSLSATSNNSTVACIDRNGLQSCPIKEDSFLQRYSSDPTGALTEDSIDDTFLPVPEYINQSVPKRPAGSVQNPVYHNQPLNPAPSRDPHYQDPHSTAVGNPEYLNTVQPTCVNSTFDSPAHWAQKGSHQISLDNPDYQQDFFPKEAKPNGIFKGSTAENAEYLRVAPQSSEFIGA
Sequence of Ba/F3 De119/T790M/C797S EGFR triple mutant cell line (P00533 with tags, fused parts or gaps DEL746-750/T790M/C797S, form open): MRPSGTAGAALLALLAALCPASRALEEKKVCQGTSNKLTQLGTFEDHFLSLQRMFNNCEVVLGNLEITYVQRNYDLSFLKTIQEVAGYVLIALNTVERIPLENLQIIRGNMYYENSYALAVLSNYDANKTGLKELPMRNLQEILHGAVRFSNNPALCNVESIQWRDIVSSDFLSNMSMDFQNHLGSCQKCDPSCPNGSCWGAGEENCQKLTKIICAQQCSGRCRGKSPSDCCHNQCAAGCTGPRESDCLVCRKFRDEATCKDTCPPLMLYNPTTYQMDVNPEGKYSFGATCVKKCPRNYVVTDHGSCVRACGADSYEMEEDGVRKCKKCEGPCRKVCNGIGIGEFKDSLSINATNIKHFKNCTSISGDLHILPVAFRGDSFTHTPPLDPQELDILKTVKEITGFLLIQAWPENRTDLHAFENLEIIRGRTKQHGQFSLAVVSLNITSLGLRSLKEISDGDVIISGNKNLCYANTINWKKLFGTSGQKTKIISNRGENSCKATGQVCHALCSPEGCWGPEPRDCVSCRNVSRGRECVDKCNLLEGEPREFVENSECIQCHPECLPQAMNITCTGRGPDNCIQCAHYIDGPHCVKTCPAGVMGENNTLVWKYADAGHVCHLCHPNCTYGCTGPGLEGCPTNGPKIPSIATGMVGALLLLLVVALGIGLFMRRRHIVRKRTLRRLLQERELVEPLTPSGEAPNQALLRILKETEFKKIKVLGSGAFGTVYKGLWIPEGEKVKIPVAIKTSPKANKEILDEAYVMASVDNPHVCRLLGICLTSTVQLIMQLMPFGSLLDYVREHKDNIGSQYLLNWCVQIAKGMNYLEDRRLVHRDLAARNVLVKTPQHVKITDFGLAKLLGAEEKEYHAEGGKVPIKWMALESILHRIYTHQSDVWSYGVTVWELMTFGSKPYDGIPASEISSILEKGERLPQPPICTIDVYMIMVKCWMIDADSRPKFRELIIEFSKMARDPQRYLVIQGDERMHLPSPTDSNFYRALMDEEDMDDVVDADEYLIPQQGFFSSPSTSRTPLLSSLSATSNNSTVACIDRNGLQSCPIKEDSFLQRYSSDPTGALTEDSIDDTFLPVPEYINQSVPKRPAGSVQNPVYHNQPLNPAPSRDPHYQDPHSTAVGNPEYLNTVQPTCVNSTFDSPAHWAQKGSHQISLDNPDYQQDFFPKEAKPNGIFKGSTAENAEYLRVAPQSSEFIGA
T2 sequence (P00533 25-1210 T790M/C797S/L858R): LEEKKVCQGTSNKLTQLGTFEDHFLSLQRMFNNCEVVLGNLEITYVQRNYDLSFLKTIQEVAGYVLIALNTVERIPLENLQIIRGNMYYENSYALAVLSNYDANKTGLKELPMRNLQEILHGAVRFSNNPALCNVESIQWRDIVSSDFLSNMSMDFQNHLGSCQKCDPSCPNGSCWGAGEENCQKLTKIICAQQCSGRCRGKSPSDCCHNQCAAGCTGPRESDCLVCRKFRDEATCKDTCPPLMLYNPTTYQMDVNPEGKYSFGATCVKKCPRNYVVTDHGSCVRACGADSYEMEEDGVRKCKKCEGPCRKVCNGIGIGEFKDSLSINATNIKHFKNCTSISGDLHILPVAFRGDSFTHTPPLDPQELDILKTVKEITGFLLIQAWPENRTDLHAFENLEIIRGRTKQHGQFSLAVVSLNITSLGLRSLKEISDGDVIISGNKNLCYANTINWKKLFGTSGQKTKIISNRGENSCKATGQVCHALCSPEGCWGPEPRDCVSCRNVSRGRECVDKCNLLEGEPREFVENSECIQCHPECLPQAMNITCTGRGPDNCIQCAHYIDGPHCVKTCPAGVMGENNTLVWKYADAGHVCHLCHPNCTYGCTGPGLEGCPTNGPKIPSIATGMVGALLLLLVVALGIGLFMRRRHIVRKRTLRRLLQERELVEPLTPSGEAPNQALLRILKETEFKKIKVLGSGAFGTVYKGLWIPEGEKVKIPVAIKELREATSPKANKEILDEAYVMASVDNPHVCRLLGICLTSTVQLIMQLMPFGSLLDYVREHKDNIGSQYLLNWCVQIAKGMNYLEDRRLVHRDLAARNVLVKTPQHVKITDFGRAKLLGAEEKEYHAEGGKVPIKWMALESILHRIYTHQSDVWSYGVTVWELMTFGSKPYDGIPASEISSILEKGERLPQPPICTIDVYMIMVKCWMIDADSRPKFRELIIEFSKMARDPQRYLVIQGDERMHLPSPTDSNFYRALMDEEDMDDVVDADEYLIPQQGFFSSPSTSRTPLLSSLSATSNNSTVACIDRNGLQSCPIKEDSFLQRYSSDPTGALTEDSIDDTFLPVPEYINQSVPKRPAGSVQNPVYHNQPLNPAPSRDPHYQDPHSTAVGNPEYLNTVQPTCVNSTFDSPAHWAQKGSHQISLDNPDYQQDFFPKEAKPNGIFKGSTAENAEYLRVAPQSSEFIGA
Sequence of Ba/F3 L858R/T790M/C797S EGFR triple mutant cell line (P00533 whole entry T790M/C797S/L858R): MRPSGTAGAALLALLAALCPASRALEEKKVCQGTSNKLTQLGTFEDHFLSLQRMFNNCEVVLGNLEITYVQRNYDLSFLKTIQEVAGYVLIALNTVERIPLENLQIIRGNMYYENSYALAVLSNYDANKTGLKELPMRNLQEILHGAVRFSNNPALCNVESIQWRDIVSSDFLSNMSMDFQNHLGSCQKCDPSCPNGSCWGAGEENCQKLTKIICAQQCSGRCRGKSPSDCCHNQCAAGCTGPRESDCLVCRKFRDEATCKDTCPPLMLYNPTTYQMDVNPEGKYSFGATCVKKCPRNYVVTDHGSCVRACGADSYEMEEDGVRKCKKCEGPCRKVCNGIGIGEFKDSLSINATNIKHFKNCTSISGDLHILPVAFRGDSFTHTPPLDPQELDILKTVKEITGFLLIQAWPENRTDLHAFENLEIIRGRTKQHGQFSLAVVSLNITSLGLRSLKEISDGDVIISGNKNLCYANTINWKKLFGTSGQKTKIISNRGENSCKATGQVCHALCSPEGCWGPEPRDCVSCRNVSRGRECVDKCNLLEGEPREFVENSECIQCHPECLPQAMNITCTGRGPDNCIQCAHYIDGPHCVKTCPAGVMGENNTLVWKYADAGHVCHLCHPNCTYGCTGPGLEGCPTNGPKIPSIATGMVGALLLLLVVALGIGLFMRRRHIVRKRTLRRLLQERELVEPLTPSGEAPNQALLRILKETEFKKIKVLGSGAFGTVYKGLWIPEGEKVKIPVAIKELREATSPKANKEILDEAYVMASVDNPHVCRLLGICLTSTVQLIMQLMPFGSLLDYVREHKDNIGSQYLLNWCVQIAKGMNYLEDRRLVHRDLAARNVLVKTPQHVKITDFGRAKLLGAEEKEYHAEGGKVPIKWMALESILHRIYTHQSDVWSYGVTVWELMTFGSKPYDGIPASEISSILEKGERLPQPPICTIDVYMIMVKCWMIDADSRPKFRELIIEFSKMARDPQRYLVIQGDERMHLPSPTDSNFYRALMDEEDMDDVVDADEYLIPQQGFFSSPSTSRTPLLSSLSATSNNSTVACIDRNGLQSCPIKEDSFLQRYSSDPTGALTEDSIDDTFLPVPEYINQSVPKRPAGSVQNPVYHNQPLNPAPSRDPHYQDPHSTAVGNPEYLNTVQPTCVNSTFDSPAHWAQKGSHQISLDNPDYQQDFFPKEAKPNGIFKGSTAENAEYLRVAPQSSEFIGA

IC50 (wild-type EGFR; read-out: EGFR (WT) IC50)	IC50 [1, 5]	IC50 ([2]; A-431, 72 h)	GI50 [3]	GI50 [4]	SMILES	IC50 (wild-type EGFR; EGFR (WT) IC50(nM))	IC50 ([1]; EGFR (L858R/T790M/C797S) IC50(nM))	IC50 ([2]; A-431, 72 hours)
2.57 nM	0.12 nM	67.8 nM	0.6 nM	7.17 nM	COc1cc(N2CCN3CCCCC3C2)c(-c2cnn(C)c2)cc1Nc1ncc(Br)c(Nc2ccc3nccnc3c2P(C)(C)=O)n1 (stereo not drawn) [compound 131]			
17.8 nM	0.23 nM	295 nM	10.2 nM	32.6 nM	Cc1nc(N2CCOCC2)c(-c2cnn(C)c2)cc1Nc1ncc(Br)c(Nc2ccc3nccnc3c2P(C)(C)=O)n1 [compound 38]			
179 nM	9.21 nM	1590 nM	277 nM	629 nM	COc1ccc(-n2cccn2)cc1Nc1ncc(Br)c(Nc2ccc3nccnc3c2P(C)(C)=O)n1 [compound 20]			
20.6 nM	2.28 nM	518 nM	6.2 nM	18 nM	COCC1CCCN(c2cc(OC)c(Nc3ncc(Br)c(Nc4ccc5nccnc5c4P(C)(C)=O)n3)cc2-c2cnn(C)c2)C1 (stereo not drawn) [compound 162]			
345 nM	15.6 nM	3060 nM	87.8 nM	136 nM	COc1cc(N2CCOCC2)c(-c2ccsc2)cc1Nc1ncc(Br)c(Nc2ccc3nccnc3c2P(C)(C)=O)n1 [compound 86]			
4.39 nM	0.73 nM	175 nM	2.36 nM	4.24 nM	COc1cc(N2CCO[C@H](C)C2)c(-c2cnn(C)c2)cc1Nc1ncc(Br)c(Nc2ccc3nccnc3c2P(C)(C)=O)n1 [compound 169]			
55.3 nM	2.85 nM	1180 nM	1130 nM	542 nM	COc1cc(C(=O)N(C)C)c(-c2cnn(C)c2)cc1Nc1ncc(Br)c(Nc2ccc3nccnc3c2P(C)(C)=O)n1 [compound 40]			
1.4 nM	0.19 nM	47.4 nM	1.55 nM	4.34 nM	CCN1CCC2(CC1)CCN(c1cc(OC)c(Nc3ncc(Br)c(Nc4ccc5nccnc5c4P(C)(C)=O)n3)cc1-c1cnn(C)c1)CC2 [compound 226]			
95.3 nM	0.47 nM	880 nM	16.4 nM	29.7 nM	COc1cc(N2CCOCC2)c(-c2cn(C)nc2C)cc1Nc1ncc(Br)c(Nc2ccc3nccnc3c2P(C)(C)=O)n1 [compound 43]			
3.02 nM	0.22 nM	61.9 nM	1.03 nM	2.89 nM	COc1cc(N2CCN(C)C(CF)C2)c(-c2cnn(C)c2)cc1Nc1ncc(Br)c(Nc2ccc3nccnc3c2P(C)(C)=O)n1 (stereo not drawn) [compound 153]			
27.2 nM	0.95 nM	192 nM	4.07 nM	17.7 nM	COc1cc(N2CCOC[C@H]2C)c(-c2cnn(C)c2)cc1Nc1ncc(Br)c(Nc2ccc3nccnc3c2P(C)(C)=O)n1 [compound 104]			
1.02 nM	0.15 nM	406 nM	6.64 nM	25.5 nM	COc1cc(N2CCOCC2)c(-c2cn[nH]c2)cc1Nc1ncc(C)c(Nc2ccc3nccnc3c2P(C)(C)=O)n1 [compound 97]			
1.54 nM	0.7 nM	114 nM	0.93 nM	4.11 nM	COc1cc(N2CCC(N3CC(F)C3)CC2)c(-c2cnn(C)c2)cc1Nc1ncc(Br)c(Nc2ccc3nccnc3c2P(C)(C)=O)n1 [compound 159]			
2.32 nM	0.26 nM	208 nM	1.56 nM	9.04 nM	COc1cc(N2CCOCC2)c(-c2cnn(C)c2)cc1Nc1ncc(Br)c(Nc2ccc3ncccc3c2P(C)(C)=O)n1 [compound 160]			
2.23 nM	0.24 nM	218 nM	2.28 nM	5.67 nM	COc1cc(N2CCN(C3(C)COC3)CC2)c(-c2cnn(C)c2)cc1Nc1ncc(Br)c(Nc2ccc3nccnc3c2P(C)(C)=O)n1 [compound 184]			
166 nM	1.24 nM	≥ 5000 nM	6.76 nM	69.2 nM	COc1cc(N2CCOCC2)c(-c2cnn(C)c2)cc1Nc1nccc(Nc2ccc3nccnc3c2P(C)(C)=O)n1 [Compound 42, (6-((2-((2-methoxy-5-(1-methyl-1H-pyrazol-4-yl)-4-morpholinophenyl)amino)pyrimidin-4-yl)amino)quinoxalin-5-yl)dimethylphosphine oxide]			
3.81 nM	0.48 nM	92.1 nM	1.58 nM	5.05 nM	COc1cc(N2CCN3CCCC[C@H]3C2)c(-c2cnn(C)c2)cc1Nc1ncc(Br)c(Nc2ccc3nccnc3c2P(C)(C)=O)n1 [compound 166]			
0.62 nM	0.25 nM	95.6 nM	7.7 nM	14.3 nM	COc1cc(N2CCC(N3CC(C)N(C)C(C)C3)CC2)c(-c2cnn(C)c2)cc1Nc1ncc(Br)c(Nc2ccc3nccnc3c2P(C)(C)=O)n1 (stereo not drawn) [compound 197]			
1.95 nM	0.79 nM	47.4 nM	2.97 nM	4.34 nM	COc1cc(N2CCC3(CCN(CC4CC4)CC3)CC2)c(-c2cnn(C)c2)cc1Nc1ncc(Br)c(Nc2ccc3nccnc3c2P(C)(C)=O)n1 [compound 167]			
1.55 nM	0.15 nM	286 nM	0.93 nM	3.81 nM	COc1cc(N2CCOCC2)c(-c2cnn(C)c2)cc1Nc1ncc(Br)c(Nc2ccc3nccnc3c2NS(C)(=O)=O)n1 [compound 126]			
7.62 nM	0.89 nM	398 nM	43.4 nM	84.3 nM	COc1cc(N2CCOCC2)c(-c2cnn(C)c2)cc1Nc1ncc(C#N)c(Nc2ccc3nccnc3c2P(C)(C)=O)n1 [Compound 13, 4-((5-(dimethylphosphoryl)quinoxalin-6-yl)amino)-2-((2-methoxy-5-(1-methyl-1H-pyrazol-4-yl)-4-morpholinylphenyl)amino)pyrimidine-5-carbonitrile]			
5.44 nM	0.37 nM	38.4 nM	2.52 nM	5.65 nM	COc1cc(N2CC[C@@H]3CCN(CC4CC4)[C@@H]3C2)c(-c2cnn(C)c2)cc1Nc1ncc(Br)c(Nc2ccc3nccnc3c2P(C)(C)=O)n1 (single isomer, unassigned) [234b]			
9.74 nM	0.73 nM	171 nM	7.18 nM	12.6 nM	COc1cc(N2CCC(N3CCN(CCF)CC3)CC2)c(-c2cnn(C)c2)cc1Nc1ncc(Br)c(Nc2ccccc2N(C)S(=O)(=O)C2CC2)n1 [compound 209]			
1.57 nM	0.25 nM	66.9 nM	5.19 nM	11.2 nM	COc1cc(N2CCC(N3CC(CF)C3)CC2)c(-c2cnn(C)c2)cc1Nc1ncc(Br)c(Nc2ccc3nccnc3c2P(C)(C)=O)n1 [compound 204]			
10.7 nM	4.31 nM	336 nM	8.88 nM	13.2 nM	COc1cc(N2CCC3(CC2)CN(C(C)C)CC(C)(C)O3)c(-c2cnn(C)c2)cc1Nc1ncc(Br)c(Nc2ccc3nccnc3c2P(C)(C)=O)n1 [compound 224, (6-((5-Bromo-2-((4-(4-isopropyl-2,2-dimethyl-1-oxa-4,9-diazaspiro [5.5]undecane-9-yl)-2-methoxy-5-(1-methyl-1H-pyrazol-4-yl)phenyl)amino)pyrimidin-4-yl)amino)quinoxalin-5-yl)dimethylphosphine oxide]			
3.48 nM	0.31 nM	203 nM	1.7 nM	2.41 nM	[2H]C([2H])([2H])N(c1cc(OC)c(Nc2ncc(Br)c(Nc3ccc4nccnc4c3P(C)(C)=O)n2)cc1-c1cnn(C)c1)C([2H])([2H])[2H] [compound 145]			
1.4 nM	0.36 nM	64.8 nM	4.13 nM	6.53 nM	COc1cc(N2CCC(N3CCC(F)CC3)CC2)c(-c2cnn(C)c2)cc1Nc1ncc(Br)c(Nc2ccc3nccnc3c2P(C)(C)=O)n1 [compound 180]			
50.7 nM	6 nM	738 nM	11.2 nM	24.5 nM	COc1cc(N2CCC(N(C)C(C)C(F)(F)F)CC2)c(-c2cnn(C)c2)cc1Nc1ncc(Br)c(Nc2ccc3nccnc3c2P(C)(C)=O)n1 (stereo not drawn) [compound 173]			
75.7 nM	0.88 nM	450 nM	55 nM	110 nM	COc1ccc(-c2cnoc2)cc1Nc1ncc(Br)c(Nc2ccc3nccnc3c2P(C)(C)=O)n1 [compound 9]			

SMILES	IC50 (wild-type EGFR; read-out: EGFR (WT) IC50)	IC50 [1, 5]	IC50 ([2]; A-431, 72 h)	GI50 [3]	GI50 [4]	IC50 (wild-type EGFR; EGFR (WT) IC50(nM))	IC50 ([1]; EGFR (L858R/T790M/C797S) IC50(nM))	IC50 ([2]; A-431, 72 hours)
CCOP(C)(=O)c1c(Nc2nc(Nc3cc(-c4cnn(C)c4)c(N4CCOCC4)c(F)c3OC)ncc2Br)ccc2nccnc12 (stereo not drawn) [compound 24]				45.2 nM	139 nM	346 nM	11.4 nM	567 nM
